Results from paper PMC12566971, “Polyprenylated Acylphloroglucinols from Hypericum rochelii and Hypericum olympicum—Cytotoxic Effects on Non-Tumorigenic Cell Lines and Antibacterial Potential” (Pharmaceuticals, 2025).
pIC50: −log10 of the molar value. In brackets after ≈: the same amount, converted by molar mass. Several values for one entry are separate records, joined by “and”; a condition that tells them apart may be missing. Equal entries are not always repeated. Where two headings read alike, the source gives them in different places.

What was measured:
S. aureus biofilm = assay: Biofilm assay; assay type: cell-based, Staphylococcus aureus
Procedure: The biofilm assay was performed according to the protocol of Stepanović [138], as already described.

[1] = tested on: Lactiplantibacillus plantarum; assay: MIC evaluation on lactobacilli (broth microdilution); assay type: cell-based
Procedure: (§1) The MIC and MBC assessment on the pathogenic bacteria and the candidate probiotic lactic acid bacteria was carried out by the broth microdilution assay (BMD) and the agar plate assay, respectively, as described in [4]. The metabolic (dehydrogenase) activity of the lactic acid bacteria was assessed as described in [4]. Lactobacilli of different origins from the collection of Laboratory “Lactic Acid Bacteria and Probiotics”, the Stephan Angeloff Institute of Microbiology, Bulgarian Academy of Sciences (Sofia, Bulgaria), were selected (Table 13). The strains had been assessed previously, as candidate probiotics, according to the in vitro criteria recommended by the EFSA and the WHO guidelines. They were stored at −20 °C in MRS broth (Merck Group, Darmstadt, Germany) supplemented with 20% v/v sterile glycerol. Prior to the experiments, lactobacilli were subcultured twice in MRS broth (GM369, HiMedia, Mumbai, India) at 37 °C. An overnight exponential-phase culture (5% v/v inoculum) was used for the tests.

[2] = tested on: Limosilactobacillus fermentum; assay: as above; assay type: cell-based
Procedure: as §1

HGF cells = assay: Western blot for autophagy proteins Atg5, Atg7; assay type: cell-based, human; conditions: MIC for S. aureus, relative to untreated control
Procedure: For Western blot, CCL-1 and HGF cell lines were chosen, and they were seeded in either 6-well plates or 55 mm Petri dishes suitable for cell culture. They were treated with an exposure time of 24 h in an incubator (Panasonic MCO-18AC, Panasonic Healthcare Ltd., […], Japan). […] Hans-Jörg Eibl. In addition, a higher concentration of an […] added to one of the tests for comparison. The samples were trypsinized, collected, washed with PBS (TS1101, HiMedia, Mumbai, India), centrifuged, and frozen at -80 °C if storage was necessary. Then they were lysed on ice with a buffer containing 100 mM Tris-HCl (648313, Sigma-Aldrich, St. Louis, MO, USA) at pH 8.0, 4% sodium dodecyl sulfate (SDS, […], Sigma-Aldrich), 20% glycerol (49779, Sigma-Aldrich), 1% Na3VO4 (450243, Sigma-Aldrich), 200 mM dithiothreitol (DTT, 3483-12-3, Sigma-Aldrich, Burlington, MA, USA) supplemented with protease inhibitor (05892970001, Roche). The cell lysate was heated to boiling for 15 min, then centrifuged at 13,000 rpm for 10 min at 4 °C. Lysates were subjected to denaturing SDS polyacrylamide gel electrophoresis on acrylamide 4-20% gradient Mini-PROTEAN® TGXTM Stain-Free gels (4568094, Bio-Rad Laboratories, Hercules, CA, USA). […] Densitometric calculation and analysis was performed with Quantity One software version 4.6.9 (Bio-Rad Laboratories).

tumor cell lines = conditions: ref [29]; cited from earlier work
Staphylococcus aureus = conditions: ref [4],[29]; cited from earlier work
CCL-1 cell line = assay: Live-cell imaging with Hoechst for apoptosis detection; assay type: cell-based; conditions: low MIC doses
Procedure: Cell suspension was seeded in the same manner as for MTT, but 50 µL per well in 96-well clear bottom plates. […] For the hypertonic buffer, the exposure time was 2 h, and the cells were plated at twice the concentration as for the MTT and cytopathic tests in order to comply with the kit protocol.
At least two wells were seeded as replicates, and at least two photographs were taken for all samples and treatments, stained with dyes or not.

Enterococcus faecalis = conditions: ref [4],[29]; cited from earlier work
human CYP450 3A4 isoform = assay: ELISA for cytochrome P450 3A4 in HEPG2 cells; assay type: in vitro ADME
Procedure: The effect on CYP450 was tested using the ELISA method on the HEPG2 liver cell line. As mentioned, it has weak or absent expression of the CYP450 superfamily, e.g., CYP3A4, CYP1A2, etc., and that low basal activity makes it a good model for studies of CYP inducers. In addition, these cells have the advantage of immortalization due to their cancerous nature. The standard curves after the two ELISA tests (Figure S7) were prepared as a standard dose–response curve, also called a four-parameter logistic (4-PL) curve.
The effect on human cytochrome P450 3A4, the major member of the CYP450 superfamily of enzymes, which is predominantly found in the liver and metabolizes approximately half of the drugs metabolized by CYP450 enzymes, was assayed using the CYP3A4 ELISA Kit (DL-CYP3A4-Hu, DLdevelop, Kelowna, BC, Canada). Sample selection and initial preparation were as for the total cytochrome ELISA. The experiment was performed according to the manufacturer’s instructions. This assay is a sandwich enzyme immunoassay based on the binding of CYP3A4 in standards and samples to a biotin-conjugated antibody specific for CYP3A4. […] The reaction was stopped by adding sulfuric acid solution, and the plate was read at 450 nm on a microplate reader ELx800 (BioTek Instruments, Inc.). The CYP3A4 concentration was determined by comparing the O.D. of the samples with the standard curve.

Structure (SMILES): CC(C)=CCCC1(C)C(CC=C(C)C)CC2C(=O)C1(C(=O)C(C)C)C(=O)C(CC=C(C)C)=C2O (stereo not drawn) [Olympiforin B]
- IC50 (S. aureus biofilm; Staphylococcus aureus, read-out: Median Biofilm Inhibitory Concentration (MBIC50), S. aureus): 0.07 µg/mL and 150 nM
- Minimum Biofilm Inhibitory Concentration (MBIC), S. aureus (S. aureus biofilm; no visible biofilm): 1 (MIC) µg/mL
- MIC ([1]; strain Lpl 11, read-out: MIC, Lpl 11): 2 mg/L (≈ 4.27 µM)
- MIC ([1]; strain Lpl 25, read-out: MIC, Lpl 25): 2 mg/L (≈ 4.27 µM)
- MIC ([1]; strain Lpl.AC11S, read-out: MIC, Lpl.AC11S): 2 mg/L (≈ 4.27 µM)
- MIC ([1]; strain Lpl.L6, read-out: MIC, Lpl.L6): 4 mg/L (≈ 8.53 µM)
- MIC ([2]; strain Lf53, read-out: MIC, Lf53): 2 mg/L (≈ 4.27 µM)
- MIC ([2]; strain Lf98, read-out: MIC, Lf98): 2 mg/L (≈ 4.27 µM)
- Increase of Atg5 and Atg7 proteins (HGF cells): 106–135%
- pIC50 (tumor cell lines): 5.89
- MIC on bacteria, S. aureus (Staphylococcus aureus): 1 mg/L (≈ 2.13 µM)
- Nuclear and DNA condensation (signs of apoptosis) (CCL-1 cell line): did not cause any nuclear and DNA condensation
- MIC on bacteria, E. faecalis (Enterococcus faecalis): 4 mg/L (≈ 8.53 µM)
- CYP450 3A4, Mean Diff. Co vs. agent (Tukey) (human CYP450 3A4 isoform; 2×MIC, control minus treated): 0.000325
- Induction of CYP450 3A4 (human CYP450 3A4 isoform; HEPG2, 24 h, concentrations inhibiting S. aureus): hardly induce
